The text below walks through data of patent publication EP0164635A2, “Imidazothiazolemethylene-acetohydrazide derivatives, preparation thereof and pharmaceutical composition having diuretic activity” (MEDIOLANUM FARMACEUTICI s.r.l., priority 1984, dated 1985).

Several values for one entry are separate records, joined by “and”; a condition that tells them apart may be missing. Equal values may be shown once.

The subject of data set [1] is rats. Description: Diuretic activity: urinary sodium excretion over 6 hours after oral administration. Format: in vivo, rat. The settings on record: read-out: Diuretic effect %; for response vs control in vivo at 20 mg/kg: dose 20 mg/kg oral; for response vs control in vivo at 5 mg/kg: dose 5 mg/kg oral; for response vs control in vivo at 10 mg/kg: dose 10 mg/kg oral. Here is the method:
The first series of tests was carried out to rats orally administered with distilled water (25 ml/kg) containing the product under test, previously suspended in Tween 80 (1% v/v with respect to water). Urina of the 6 hours following the treatment was collected in order to measure the sodium concentration, by means of atomic absorption. The ratio of the meq/100 g of body weight of the treated animals to the corresponding ratio of the meq/100 g of body weight of the control animals (treated with the sole vehicle) was calculated, in order to determine the dose of the test compound doubling or trebling or anyway increasing the sodium excretion.

Data set [2] in a line: in vivo. The settings on record: rat.
The test system of data set [3] is rat. Description: Excreted urinary electrolytes after oral administration, with a second water load after 0-3 h. It is filed as in vivo. Here is the method: (§1) The compounds were administered by the oral route, under the same conditions as described in the previous test, but the animals, after the O-3 hours interval, were treated with further 25 ml/kg of distilled water, by intubation.

Data set [4] concerns rat. Description: Excreted urinary volumes after oral administration, with a second water load after 0-3 h. It is filed as in vivo. How it is done:
as §1

The mark [5] stands for this setting: rat, sodium urinary excretion in 6 h vs controls (control = 100).

In general, LD50 refers to the dose expected to kill half of the subjects tested. Regarding `Cc1ccc(-c2nc3n(c2C=NNC(=O)CN(C)C)CCS3)cc1` [Example 12], the response vs control in vivo at 20 mg/kg in data set [1] (setting [5]) worked out at 120%. The LD50 is about 600 mg/kg in data set [2] (ip) and about 800 mg/kg in data set [2] (po).

As to `NCC(=O)NN=Cc1c(-c2ccccc2)nc2sccn12` [Example 14], the response vs control in vivo at 20 mg/kg in data set [1] (setting [5]) turned out to be 130%. For the same molecule, in data set [2] (po), the LD50 is over 1000 mg/kg.

For `CN(C)CC(=O)NN=Cc1c(-c2ccc(Cl)cc2)nc2n1CCS2` [Example 11], the response vs control in vivo at 20 mg/kg in data set [1] (setting [5]) is 230%. Besides, the LD50 in data set [2] (ip) is about 600 mg/kg; in data set [2] (po), about 800 mg/kg.

Take `NS(=O)(=O)c1cc2c(cc1C(F)(F)F)NCNS2(=O)=O` [Hydroflumethia-zide, hydroflumethiazide, reference compound]: in data set [1] (setting [5]), the response vs control in vivo at 5 mg/kg turned out to be 260%. Moreover, the LD50 in data set [2] (iv) is 750 mg/kg.

`Cc1cn2c(C=NNC(=O)CN(C)C)c(-c3ccccc3)nc2s1` [Example 8, N,N-Dimethylaminoacetyl-[[2-methyl-6-phenyl-imida-zo[2,1-b]thiazole-5-yl]methylene]hydrazide]: the “EXCRETED URINARY ELECTROLYTES WITH RESPECT TO BODY WEIGHT, K^+” value turned out to be 0.66 mEq/kg in data set [3] (10 mg/kg, 0-3 h); 0.99 mEq/kg in data set [3] (10 mg/kg, 0-6 h); 0.33 mEq/kg in data set [3] (10 mg/kg, 3-6 h); 0.48 mEq/kg in data set [3] (head prints 10 mg/kg, 0-3 h); 0.83 mEq/kg in data set [3] (head prints 10 mg/kg, 0-6 h); 0.35 mEq/kg in data set [3] (head prints 10 mg/kg, 3-6 h). The “EXCRETED URINARY ELECTROLYTES WITH RESPECT TO BODY WEIGHT, Na^+” value in data set [3] (10 mg/kg, 0-3 h) came out at 2.24 mEq/kg; in data set [3] (10 mg/kg, 0-6 h), 2.39 mEq/kg; in data set [3] (10 mg/kg, 3-6 h) it was 0.15 mEq/kg; in data set [3] (head prints 10 mg/kg, 0-3 h), 1.32 mEq/kg; in data set [3] (head prints 10 mg/kg, 0-6 h) it was 1.38 mEq/kg; in data set [3] (head prints 10 mg/kg, 3-6 h) it was 0.056 mEq/kg. The response vs control in vivo at 1 mg/kg in data set [1] (dose 1 mg/kg oral, rat, sodium urinary excretion in 6 h vs controls (control = 100)) was 300%. The “EXCRETED URINARY VOLUMES WITH RESPECT TO BODY WEIGHT” value stood at 0.0265 L/kg in data set [4] (2.5 mg/kg, 0-3 h); 0.0432 L/kg in data set [4] (2.5 mg/kg, 0-6 h); 0.0167 L/kg in data set [4] (2.5 mg/kg, 3-6 h); 0.0345 L/kg in data set [4] (10 mg/kg, 0-3 h); 0.0509 L/kg in data set [4] (10 mg/kg, 0-6 h); 0.0164 L/kg in data set [4] (10 mg/kg, 3-6 h). The LD50 in data set [2] (ip) and in data set [2] (po) was over 3000 mg/kg in each case.

Regarding `CC(=O)Nc1nnc(S(N)(=O)=O)s1` [Acetazolamide, acetazolamide, reference compound], the response vs control in vivo at 2.5 mg/kg in data set [1] (Rattus norvegicus, po, 6 h) was 200%.

On to `Cc1nc2n(c1C=NNC(=O)CN(C)C)CCS2` [Example 10], for which the LD50 in data set [2] (ip) and in data set [2] (po) was over 1000 mg/kg in each case.

Regarding `Cc1nc2sccn2c1C=NNC(=O)CN(C)C` [Example 2], the figures for the LD50 in data set [2] (ip) and in data set [2] (po) were about 600 mg/kg and about 1500 mg/kg, respectively.

With `CN(C)CC(=O)NN=Cc1c(-c2ccc(Cl)cc2)nc2sccn12` [Example 4], the response vs control in vivo at 20 mg/kg in data set [1] (setting [5]) worked out at 170%. The median lethal dose (LD50) in data set [2] (ip) and in data set [2] (po) was over 1000 mg/kg throughout.

With `CN(C)CC(=O)NN=Cc1c(Cl)nc2sccn12` [Example 1], in data set [1] (setting [5]), the response vs control in vivo at 20 mg/kg was 120%. Besides, the LD50 in data set [2] (ip) is about 250 mg/kg; in data set [2] (po), about 1500 mg/kg.

Regarding `Cc1cn2c(C=NNC(=O)CN(C)C)c(C)nc2s1` [Example 6, N,N-dimethylamino-acetyl-[[2-methyl-6-methyl-imidazo[2,1-a]thiazole-5-yl]methylene]-hydrazide], in data set [1] (setting [5]), the response vs control in vivo at 10 mg/kg is 180%. Further, the LD50 is about 600 mg/kg in data set [2] (ip) and about 1000 mg/kg in data set [2] (po).

Consider `Cc1ccc(-c2nc3sccn3c2C=NNC(=O)CN(C)C)cc1` [Example 5], for which the response vs control in vivo at 5 mg/kg in data set [1] (setting [5]) is 130%. Also, the LD50 in data set [2] (ip) and in data set [2] (po) was over 3000 mg/kg in each case.

Take `CN(C)CC(=O)NN=Cc1c(-c2ccccc2)nc2n1CCS2` [Example 9]: the response vs control in vivo at 10 mg/kg in data set [1] (setting [5]) was 230%. Besides, the results for the LD50 in data set [2] (ip) and in data set [2] (po) were over 1000 mg/kg and over 3000 mg/kg, respectively.

For `CC(=O)S[C@@H]1CC2=CC(=O)CC[C@]2(C)[C@H]2CC[C@@]3(C)[C@@H](CC[C@@]34CCC(=O)O4)[C@H]12` [Spironolactone, spironolactone, reference compound], in data set [1] (setting [5]), the response vs control in vivo at 20 mg/kg was 360%.

As to `NS(=O)(=O)c1cc(C(=O)O)c(NCc2ccco2)cc1Cl` [Furosemide, furosemide, reference compound], the “EXCRETED URINARY ELECTROLYTES WITH RESPECT TO BODY WEIGHT, K^+” value is 0.87 mEq/kg and 1.02 mEq/kg in data set [3] (10 mg/kg, 0-3 h); 1.15 mEq/kg and 1.11 mEq/kg in data set [3] (10 mg/kg, 0-6 h); 0.24 mEq/kg and 0.13 mEq/kg in data set [3] (10 mg/kg, 3-6 h). Moreover, the “EXCRETED URINARY ELECTROLYTES WITH RESPECT TO BODY WEIGHT, Na^+” value was 1.30 mEq/kg and 1.82 mEq/kg in data set [3] (10 mg/kg, 0-3 h); 1.38 mEq/kg and 1.85 mEq/kg in data set [3] (10 mg/kg, 0-6 h). In addition, the response vs control in vivo at 10 mg/kg in data set [1] (setting [5]) stood at 490%. Moreover, the “EXCRETED URINARY VOLUMES WITH RESPECT TO BODY WEIGHT” value in data set [4] (10 mg/kg, 0-3 h) was 0.0365 L/kg and 0.0265 L/kg; in data set [4] (10 mg/kg, 0-6 h) it was 0.0451 L/kg and 0.0472 L/kg; in data set [4] (10 mg/kg, 3-6 h), 0.0107 L/kg and 0.0186 L/kg.

Turning to `Cc1csc2nc(-c3ccccc3)c(C=NNC(=O)CN(C)C)n12` [Example 7], the “EXCRETED URINARY ELECTROLYTES WITH RESPECT TO BODY WEIGHT, Cl^-” value came to 2.55 mEq/kg in data set [3] (10 mg/kg, 0-3 h); 2.57 mEq/kg in data set [3] (10 mg/kg, 0-6 h); 0.025 mEq/kg in data set [3] (10 mg/kg, 3-6 h); 1.53 mEq/kg in data set [3] (head prints 10 mg/kg, 0-3 h); 1.53 mEq/kg in data set [3] (head prints 10 mg/kg, 0-6 h); 0.0 mEq/kg in data set [3] (head prints 10 mg/kg, 3-6 h). Moreover, the “EXCRETED URINARY ELECTROLYTES WITH RESPECT TO BODY WEIGHT, K^+” value in data set [3] (10 mg/kg, 0-3 h) is reported as 1.04 mEq/kg; in data set [3] (10 mg/kg, 0-6 h), 1.29 mEq/kg; in data set [3] (10 mg/kg, 3-6 h), 0.25 mEq/kg; in data set [3] (head prints 10 mg/kg, 0-3 h) it was 0.93 mEq/kg; in data set [3] (head prints 10 mg/kg, 0-6 h), 1.26 mEq/kg; in data set [3] (head prints 10 mg/kg, 3-6 h), 0.33 mEq/kg. The “EXCRETED URINARY ELECTROLYTES WITH RESPECT TO BODY WEIGHT, Na^+” value in data set [3] (10 mg/kg, 0-3 h) is on record as 2.55 mEq/kg; in data set [3] (10 mg/kg, 0-6 h), 2.71 mEq/kg; in data set [3] (10 mg/kg, 3-6 h), 0.16 mEq/kg; in data set [3] (head prints 10 mg/kg, 0-3 h) it was 2.03 mEq/kg; in data set [3] (head prints 10 mg/kg, 0-6 h), 2.17 mEq/kg; in data set [3] (head prints 10 mg/kg, 3-6 h) it was 0.14 mEq/kg. Further, in data set [1] (dose 0.5 mg/kg oral, rat, sodium urinary excretion in 6 h vs controls (control = 100)), the response vs control in vivo at 0.5 mg/kg was 250%. The “EXCRETED URINARY VOLUMES WITH RESPECT TO BODY WEIGHT” value in data set [4] (2.5 mg/kg, 0-3 h) was 0.0333 L/kg; in data set [4] (2.5 mg/kg, 0-6 h), 0.0469 L/kg; in data set [4] (2.5 mg/kg, 3-6 h), 0.0136 L/kg; in data set [4] (10 mg/kg, 0-3 h), 0.0326 L/kg; in data set [4] (10 mg/kg, 0-6 h) it was 0.0474 L/kg; in data set [4] (10 mg/kg, 3-6 h), 0.0147 L/kg. Also, the LD50 in data set [2] (ip) and in data set [2] (po) was over 3000 mg/kg throughout.

`CN(C)CC(=O)NN=Cc1c(-c2ccccc2)nc2sccn12` [Example 3]: in data set [1] (setting [5]), the response vs control in vivo at 5 mg/kg turned out to be 310%. For the same molecule, the LD50 in data set [2] (ip) and in data set [2] (po) was about 600 mg/kg each time.
